Measurements: the NIST ThermoML archive (doi:10.1016/j.jct.2016.07.017)
± gives the expanded uncertainty stated by the source.

assay: activity coefficient (dimensionless); of the first substance listed, at infinite dilution; xn = mol fraction of the nth substance listed; settings: 318.15 K; 101.33 kPa; Liquid; Chromatography; x1 = 0

| SMILES | activity coefficient |
| --- | --- |
| CCCCC(C)=O [2-hexanone] + CC[N+](C)(CC)CCOC.O=S(=O)([N-]S(=O)(=O)C(F)(F)F)C(F)(F)F | 1.14 ± 0.09 |
| CCC(C)(C)OC [2-methoxy-2-methylbutane] + CC[N+](C)(CC)CCOC.O=S(=O)([N-]S(=O)(=O)C(F)(F)F)C(F)(F)F | 3.87 ± 0.33 |
| COC(C)(C)C [2-methoxy-2-methylpropane] + CC[N+](C)(CC)CCOC.O=S(=O)([N-]S(=O)(=O)C(F)(F)F)C(F)(F)F | 2.62 ± 0.23 |
| CCCC(=O)CC [3-hexanone] + CC[N+](C)(CC)CCOC.O=S(=O)([N-]S(=O)(=O)C(F)(F)F)C(F)(F)F | 1.21 ± 0.1 |
| CCC(C)CC [3-methylpentane] + CC[N+](C)(CC)CCOC.O=S(=O)([N-]S(=O)(=O)C(F)(F)F)C(F)(F)F | 16.1 ± 1.4 |
| CC(C)=O [acetone] + CC[N+](C)(CC)CCOC.O=S(=O)([N-]S(=O)(=O)C(F)(F)F)C(F)(F)F | 0.484 ± 0.045 |
| CC#N [acetonitrile] + CC[N+](C)(CC)CCOC.O=S(=O)([N-]S(=O)(=O)C(F)(F)F)C(F)(F)F | 0.488 ± 0.045 |
| c1ccccc1 [benzene] + CC[N+](C)(CC)CCOC.O=S(=O)([N-]S(=O)(=O)C(F)(F)F)C(F)(F)F | 1.03 ± 0.08 |
| CCCCO [butan-1-ol] + CC[N+](C)(CC)CCOC.O=S(=O)([N-]S(=O)(=O)C(F)(F)F)C(F)(F)F | 2.96 ± 0.26 |
| C1CCCCCC1 [cycloheptane] + CC[N+](C)(CC)CCOC.O=S(=O)([N-]S(=O)(=O)C(F)(F)F)C(F)(F)F | 14.9 ± 1.3 |
| C1CCCCC1 [cyclohexane] + CC[N+](C)(CC)CCOC.O=S(=O)([N-]S(=O)(=O)C(F)(F)F)C(F)(F)F | 10.8 ± 0.9 |
| C1=CCCCC1 [cyclohexene] + CC[N+](C)(CC)CCOC.O=S(=O)([N-]S(=O)(=O)C(F)(F)F)C(F)(F)F | 5.83 ± 0.5 |
| C1CCCCCCC1 [cyclooctane] + CC[N+](C)(CC)CCOC.O=S(=O)([N-]S(=O)(=O)C(F)(F)F)C(F)(F)F | 20.4 ± 1.8 |
| C1CCCC1 [cyclopentane] + CC[N+](C)(CC)CCOC.O=S(=O)([N-]S(=O)(=O)C(F)(F)F)C(F)(F)F | 7.28 ± 0.63 |
| CCCCCCCCCC [decane] + CC[N+](C)(CC)CCOC.O=S(=O)([N-]S(=O)(=O)C(F)(F)F)C(F)(F)F | 82 ± 7.1 |
| CCOCC [diethyl ether] + CC[N+](C)(CC)CCOC.O=S(=O)([N-]S(=O)(=O)C(F)(F)F)C(F)(F)F | 2.62 ± 0.23 |
| CC(C)OC(C)C [diisopropyl ether] + CC[N+](C)(CC)CCOC.O=S(=O)([N-]S(=O)(=O)C(F)(F)F)C(F)(F)F | 6.4 ± 0.55 |
| CCCOCCC [dipropyl ether] + CC[N+](C)(CC)CCOC.O=S(=O)([N-]S(=O)(=O)C(F)(F)F)C(F)(F)F | 6.84 ± 0.59 |

| SMILES | activity coefficient |
| --- | --- |
| CCO [ethanol] + CC[N+](C)(CC)CCOC.O=S(=O)([N-]S(=O)(=O)C(F)(F)F)C(F)(F)F | 1.77 ± 0.15 |
| CCc1ccccc1 [ethylbenzene] + CC[N+](C)(CC)CCOC.O=S(=O)([N-]S(=O)(=O)C(F)(F)F)C(F)(F)F | 2.24 ± 0.19 |
| CCCCCCC [heptane] + CC[N+](C)(CC)CCOC.O=S(=O)([N-]S(=O)(=O)C(F)(F)F)C(F)(F)F | 26.4 ± 2.3 |
| C=CCCCC [hex-1-ene] + CC[N+](C)(CC)CCOC.O=S(=O)([N-]S(=O)(=O)C(F)(F)F)C(F)(F)F | 9.21 ± 0.8 |
| CCCCCC [hexane] + CC[N+](C)(CC)CCOC.O=S(=O)([N-]S(=O)(=O)C(F)(F)F)C(F)(F)F | 18.2 ± 1.6 |
| CO [methanol] + CC[N+](C)(CC)CCOC.O=S(=O)([N-]S(=O)(=O)C(F)(F)F)C(F)(F)F | 1.33 ± 0.11 |
| CC1CCCCC1 [methylcyclohexane] + CC[N+](C)(CC)CCOC.O=S(=O)([N-]S(=O)(=O)C(F)(F)F)C(F)(F)F | 14.9 ± 1.3 |
| CCCCCCCCC [nonane] + CC[N+](C)(CC)CCOC.O=S(=O)([N-]S(=O)(=O)C(F)(F)F)C(F)(F)F | 55.7 ± 4.8 |
| C=CCCCCCC [oct-1-ene] + CC[N+](C)(CC)CCOC.O=S(=O)([N-]S(=O)(=O)C(F)(F)F)C(F)(F)F | 19.6 ± 1.7 |
| CCCCCCCC [octane] + CC[N+](C)(CC)CCOC.O=S(=O)([N-]S(=O)(=O)C(F)(F)F)C(F)(F)F | 38.3 ± 3.3 |
| CCCC(C)=O [pentan-2-one] + CC[N+](C)(CC)CCOC.O=S(=O)([N-]S(=O)(=O)C(F)(F)F)C(F)(F)F | 0.853 ± 0.071 |
| CCC(=O)CC [pentan-3-one] + CC[N+](C)(CC)CCOC.O=S(=O)([N-]S(=O)(=O)C(F)(F)F)C(F)(F)F | 0.852 ± 0.071 |
| CCCO [propan-1-ol] + CC[N+](C)(CC)CCOC.O=S(=O)([N-]S(=O)(=O)C(F)(F)F)C(F)(F)F | 2.26 ± 0.19 |
| CC(C)O [propan-2-ol] + CC[N+](C)(CC)CCOC.O=S(=O)([N-]S(=O)(=O)C(F)(F)F)C(F)(F)F | 2.04 ± 0.18 |
| c1ccncc1 [pyridine] + CC[N+](C)(CC)CCOC.O=S(=O)([N-]S(=O)(=O)C(F)(F)F)C(F)(F)F | 0.6 ± 0.053 |
| C=Cc1ccccc1 [styrene] + CC[N+](C)(CC)CCOC.O=S(=O)([N-]S(=O)(=O)C(F)(F)F)C(F)(F)F | 1.3 ± 0.11 |
| C1CCOC1 [tetrahydrofuran] + CC[N+](C)(CC)CCOC.O=S(=O)([N-]S(=O)(=O)C(F)(F)F)C(F)(F)F | 0.817 ± 0.068 |
| c1ccsc1 [thiophene] + CC[N+](C)(CC)CCOC.O=S(=O)([N-]S(=O)(=O)C(F)(F)F)C(F)(F)F | 0.906 ± 0.075 |

same assay, conditions: 328.15 K; 101.33 kPa; Liquid; Chromatography; x1 = 0

| SMILES | activity coefficient |
| --- | --- |
| CCCCC(C)=O [2-hexanone] + CC[N+](C)(CC)CCOC.O=S(=O)([N-]S(=O)(=O)C(F)(F)F)C(F)(F)F | 1.15 ± 0.1 |
| CCC(C)(C)OC [2-methoxy-2-methylbutane] + CC[N+](C)(CC)CCOC.O=S(=O)([N-]S(=O)(=O)C(F)(F)F)C(F)(F)F | 3.86 ± 0.33 |
| COC(C)(C)C [2-methoxy-2-methylpropane] + CC[N+](C)(CC)CCOC.O=S(=O)([N-]S(=O)(=O)C(F)(F)F)C(F)(F)F | 2.63 ± 0.23 |
| CCCC(=O)CC [3-hexanone] + CC[N+](C)(CC)CCOC.O=S(=O)([N-]S(=O)(=O)C(F)(F)F)C(F)(F)F | 1.22 ± 0.1 |
| CCC(C)CC [3-methylpentane] + CC[N+](C)(CC)CCOC.O=S(=O)([N-]S(=O)(=O)C(F)(F)F)C(F)(F)F | 14.9 ± 1.3 |
| CC(C)=O [acetone] + CC[N+](C)(CC)CCOC.O=S(=O)([N-]S(=O)(=O)C(F)(F)F)C(F)(F)F | 0.491 ± 0.046 |
| CC#N [acetonitrile] + CC[N+](C)(CC)CCOC.O=S(=O)([N-]S(=O)(=O)C(F)(F)F)C(F)(F)F | 0.488 ± 0.045 |
| c1ccccc1 [benzene] + CC[N+](C)(CC)CCOC.O=S(=O)([N-]S(=O)(=O)C(F)(F)F)C(F)(F)F | 1.04 ± 0.09 |
| CCCCO [butan-1-ol] + CC[N+](C)(CC)CCOC.O=S(=O)([N-]S(=O)(=O)C(F)(F)F)C(F)(F)F | 2.63 ± 0.23 |
